Measurements from patent publication US11891386B2, “Indole compounds and their use” (ARIAGEN, INC., priority 2017, dated 2024).

Key:
[1] = test system: human hepatocytes; experiment: Hepatocyte intrinsic clearance assay, human hepatocytes; type: in vitro ADME; details: for CLint (μL/min/10^6 ells) / EH (%) hepatic extraction ratio: Human Hepatocytes; for CLint (μL/min/10^6 ells): 1 μM test compound; for EH (%) hepatic extraction ratio: well stirred liver model, fu=1
Source text: The liver is an important organ in the body for drug metabolism. This Example describes hepatocyte intrinsic clearance assays using both human and mouse hepatocytes to evaluate the metabolic stability of the indole compounds disclosed herein. The parameters measured include t1/2 (half-life), CLint (intrinsic clearance), and EH (hepatic extraction ratio).
Testosterone (Lot FE111011-01) was obtained from Cerilliant (Round Rock, TX). 7-hydroxycoumarin (Lot 11631ED) was obtained from Sigma Aldrich (St. Louis, MO). Cryopreserved human hepatocytes pooled from ten donor males (X008001), cryopreserved male IRC/CD-1 mouse hepatocytes (M005052), INVITROGRO HI Medium (incubation), and INVITROGRO HT Medium (thawing) were obtained from Bioreclamation IVT (Baltimore, MD). All solvents were obtained from commercial sources and used without further purification.
Each test compound was prepared as a 1 mM stock solution in DMSO. A 2 μM solution of test compound and positive controls were prepared in INVITROGRO HI Medium (incubation). These solutions were pre-warmed in a sterile incubator set to maintain 37° C., 5% CO2, and 98% humidity. Cryopreserved hepatocytes were prepared at a concentration of 2×10^6 living cells/mL in incubation media and pre-warmed in the incubator. The compound solutions and hepatocyte mixtures were then combined at a ratio of 1:1 (v:v). The final volume of the reaction mixture was 750 μL, containing 1 μM test compound (10 μM for 7-hydroxycoumarin) and […]. The reaction mixture was placed in the incubator on a plate shaker. After 0, 15, 30, 60, 90, and 120 minutes of incubation, 100 μL of reaction mixtures were removed from the incubation plate and mixed with 150 μL of ice-cold acetonitrile in a designated well of a 96-well crash plate. The 96-well crash plate was placed on ice for 15 min, and samples were centrifuged (3,600 RPM, 10 min, 4° C.) to precipitate protein. The supernatants were diluted 1:1 (v:v) with water containing 0.15 μM verapamil and/or 1 μM tolbutamide (internal standards for positive and negative modes, respectively) in a 96-well shallow injection plate. This plate was sealed for LC-MS analysis. All measurements were done in duplicate.
The residual compound remaining (% R) was determined from LC-MS peak areas by comparison to the zero time point. Metabolic half-life (t1/2) and intrinsic clearance (CLint) values were calculated from the slope of the plot of ln (% R) vs. time and the concentration of hepatocytes present in the incubation. Percent remaining at 60 minutes was calculated by plugging in the 60 minute value into the slope equation generated by the percent remaining time points.
In vivo hepatic clearance CLH was calculated using the well stirred liver model according to the following equation:
[formula] where QH is the total liver blood flow, fu is unbound fraction of the drug, and CL′int is defined as follows: CL′int=CLint×(10^6 cells/g of liver weight)×(g liver weight/kg of body weight). In the first approximation, used in this study, fu=1.
Hepatic extraction ratio EH was calculated using the following equation:
[formula] Corresponding physiological parameters used in calculations for all species are shown below in Table 5.

[2] = test system: CYP1A1 in mouse Hepal-6 cells; experiment: EROD assay (7-ethoxy-resorufin-O-deethylase), mouse Hepa1-6 cells; type: cell-based; details: for EC50: EROD assay, 20 hours treatment
Experimental: (§1) CYP1A1 induction is under the control of the AhR signaling pathway. This Example describes an in vitro assay (7-ethoxy-resorufin-O-deethylase (EROD) assay) that evaluated the AhR modulating activities of the indole compounds described herein. In this assay, the indole compounds were incubated with human HepG2 cells or mouse Hepal-6 cells. The activity of CYP1A1 in the cells was measured by the conversion of substrate 7-ethoxyresorufin, with the readout being a fluorescence signal associated with the conversion product. The EC50 values of the indole compounds as well as the maximum […] induced by them in the assay were determined.
(§2) Human HepG2 cells were obtained from Sigma Aldrich (Catalog 85011430-1VL). Mouse Hepal-6 cells also were obtained from Sigma Aldrich (Catalog 92110305-1V).
(§3) Human HepG2 and Mouse Hepal-6 cells were grown to 60-80% confluency in tissue culture flasks, lifted with non-enzymatic cell dissociation solution (cell stripper), seeded in a 384-well plate at 5,000 cells per well, treated with the test compounds, and incubated for 20 hours overnight at 37° C. The treatment medium was removed and a solution of substrate 7-ethoxyresorufin (ETX) was added to initiate the reaction. The plate was incubated at 37° C. for 30 minutes. The reaction was subsequently terminated by adding tempered methanol. Fluorescent emission was measured at 590 nm with excitation at 530 nm in a FLEXSTATION III instrument (Molecular Devices).

[3] = test system: CYP1A1 in human HepG2 cells; experiment: EROD assay (7-ethoxy-resorufin-O-deethylase), human HepG2 cells; type: cell-based; design: key to activity group based on EC50 values, in the order of increasing activity: (1) active; (2) more active; (3) most active; details: for activity in the human EROD assay compared to ARI-001 / ARI-002, in words / EC50: human HepG2 cells; for activity group based on EC50 values, in the order of increasing activity: human EROD assay, oxadiazole derivatives of ITE; for EC50: EROD assay, 20 hours treatment
Experimental: as §1, §2, §3

SMILES	CLint (μL/min/10^6 ells) [1] [μL/min/10^6 ells]	EH (%) hepatic extraction ratio [1] [%]	activity in the mouse EROD assay, in words [2]	activity in the human EROD assay compared to ARI-001 / ARI-002, in words [3]	clearance / metabolic profile, in words ([1]; human hepatocytes)	activity group based on EC50 values, in the order of increasing activity [3]	EC50 [2] [nM]	EC50 [3] [nM]	EH lower as compared to ARI-002, in words ([1]; human hepatocytes)	times lower clearance as compared to ARI-002 ([1]; human hepatocytes) [times]
COC(=O)c1csc(C(=O)c2c[nH]c3ccc(F)cc23)n1 [ARI-066, methyl 2-(5-fluoro-1H-indole-3-carbonyl)thiazole-4-carboxylate]	98.7	92	less active	less active	–	–	–	–	–	–
Nc1nnc(-c2csc(C(=O)c3c[nH]c4cc(Cl)c(Cl)cc34)n2)o1 [ARI-120, (4-(5-amino-1,3,4-oxadiazol-2-yl)thiazol-2-yl)(5,6-dichloro-1H-indol-3-yl)methanone]	0.8	8.5	most active among the tested oxadiazole compounds	significantly more (about 4 to 900 times more) active than ARI-001	low clearance	most active	–	–	–	–
CCC(=O)c1csc(C(=O)c2c[nH]c3cc(F)c(F)cc23)n1 [ARI-149, 1-(2-(5,6-difluoro-1H-indole-3-carbonyl)thiazol-4-yl)propan-1-one]	5.3	39	–	–	–	–	0.6	19.2	–	–
CCC(=O)c1csc(C(=O)c2c[nH]c3ccc(Cl)cc23)n1 [ARI-067, 1-(2-(5-chloro-1H-indole-3-carbonyl)thiazol-4-yl)propan-1-one]	2.3	22	less active	less active	–	–	–	–	–	–
COC(=O)c1csc(C(=O)c2c[nH]c3ccc(Cl)cc23)n1 [ARI-055, methyl 2-(5-chloro-1H-indole-3-carbonyl)thiazole-4-carboxylate]	10.3	56	less active	less active	–	–	–	–	–	–
CCC(=O)c1csc(C(=O)c2c[nH]c3c(F)cccc23)n1 [ARI-140, 1-(2-(7-fluoro-1H-indole-3-carbonyl)thiazol-4-yl)propan-1-one]	3.5	30	less active than ARI-002	–	–	–	19.5	0.7	–	–
CCC(=O)c1csc(C(=O)c2c[nH]c3cc(F)ccc23)n1 [ARI-143, 1-(2-(6-fluoro-1H-indole-3-carbonyl)thiazol-4-yl)propan-1-one]	4.5	36	–	–	–	–	2.3	4.2	two times	30
CNC(=O)c1csc(C(=O)c2c[nH]c3ccc(Cl)cc23)n1 [ARI-049, 2-(5-chloro-1H-indole-3-carbonyl)-N-methylthiazole-4-carboxamide]	3.0	27	less active	less active	lower clearance and EH value	–	–	–	–	–
Nc1nnc(-c2csc(C(=O)c3c[nH]c4ccccc34)n2)s1 [ARI-090, (4-(5-amino-1,3,4-thiadiazol-2-yl)thiazol-2-yl)(1H-indol-3-yl)methanone]	5.3	39	–	significantly more (about 4 to 900 times more) active than ARI-001	–	more active	–	–	–	–
O=C(c1nc(-c2nnco2)cs1)c1c[nH]c2ccccc12 [ARI-056, (4-(1,3,4-oxadiazol-2-yl)thiazol-2-yl)(1H-indol-3-yl)methanone]	17.7	68	–	significantly more (about 4 to 900 times more) active than ARI-001	–	active	–	–	–	–
NCc1nc(-c2csc(C(=O)c3c[nH]c4c(F)cccc34)n2)no1 [ARI-146, (4-(5-(aminomethyl)-1,2,4-oxadiazol-3-yl)thiazol-2-yl)(7-fluoro-1H-indol-3-yl)methanone]	1.9	19	–	–	–	–	–	–	–	–
Cc1noc(-c2csc(C(=O)c3c[nH]c4ccccc34)n2)n1 [ARI-031, (1H-indol-3-yl)(4-(3-methyl-1,2,4-oxadiazol-5-yl)thiazol-2-yl)methanone]	0.7	8	–	significantly more (about 4 to 900 times more) active than ARI-001	low clearance	active	–	–	–	–
Cc1nnc(-c2csc(C(=O)c3c[nH]c4ccccc34)n2)o1 [ARI-060, (1H-indol-3-yl)(4-(5-methyl-1,3,4-oxadiazol-2-yl)thiazol-2-yl)methanone]	2.5	24	–	significantly more (about 4 to 900 times more) active than ARI-001	–	active	–	–	–	–
Nc1nnc(-c2csc(C(=O)c3c[nH]c4ccc(F)cc34)n2)o1 [ARI-148, (4-(5-amino-1,3,4-oxadiazol-2-yl)thiazol-2-yl)(5-fluoro-1H-indol-3-yl)methanone]	2.5	23	–	significantly more (about 4 to 900 times more) active than ARI-001	–	more active	–	–	–	–
Nc1nnc(-c2csc(C(=O)c3c[nH]c4ccccc34)n2)o1 [ARI-083, (4-(5-amino-1,3,4-oxadiazol-2-yl)thiazol-2-yl)(1H-indol-3-yl)methanone]	1.1	12	–	significantly more (about 4 to 900 times more) active than ARI-001	lower clearance and hepatic extraction parameters than ARI-060	more active	–	–	–	–
Cc1nc(-c2csc(C(=O)c3c[nH]c4ccccc34)n2)no1 [ARI-030, (1H-indol-3-yl)(4-(5-methyl-1,2,4-oxadiazol-3-yl)thiazol-2-yl)methanone]	1.8	18	–	significantly more (about 4 to 900 times more) active than ARI-001	–	active	–	–	–	–
